{
  "source": "patent US12156889B2",
  "about": "“Methods of administering mesenchymal stem cells activated by cytokines for enhancing immunosuppression” (Rutgers, The State University of New Jersey, priority 2012, dated 2024)",
  "key": {"[1]": {"system": "peripheral blood mononuclear cell", "assay": "Peripheral blood mononuclear cell proliferation with human MSCs", "assay_type": "cell-based", "details": "side-by-side comparison mouse and human MSCs", "procedure": "In the present study, with T cell activation or when exogenous inflammatory cytokines are added, the T cells first enter cell cycle arrest and then die within 24 hours. It was also observed that this apoptosis was dependent on NO, since T cell apoptosis was not observed when iNOS inhibitors were used. Apoptosis was also absent when iNOS^−/− or IFNγ R1^−/− MSCs were used. Therefore, NO-induced cell cycle arrest and apoptosis of T cells are part of the mechanism of immunosuppression mediated by inflammatory cytokine-activated MSCs. Differences between species in inflammatory cytokine-induced expression of iNOS has been noted in macrophages (Schneemann & Schoedon. 2002) Nat. Immunol. 3(2):102). […] Thus, the roles of IDO and NO in the inhibition of T cell proliferation by MSCs from mouse and human were analyzed in a side-by-side comparison."}, "[2]": {"system": "splenocytes", "assay": "Anti-CD3-activated splenocyte proliferation in co-culture with MSCs", "assay_type": "cell-based, mouse", "details": "for effect on immunosuppression by MSCs: indomethacin 10 μM, anti-IL-10 20 μg/ml, anti-TGFβ 20 μg/ml, 1-MT 1 mM; for splenocyte proliferation in MSC co-culture with iNOS inhibitor: MSCs + splenocytes + anti-CD3", "procedure": "FIGS. 9A, 9B, 9C, 9D, 9E, 9F and 9G. […] Cloned MSCs were first treated with the indicated combinations of recombinant cytokines IFNγ, TNFα, IL-17A (2 ng/ml each) for 12 hr, then cocultured with CD4^+ T cell blasts at a 1:20 ratio (MSC:T cells), and proliferation was assessed by 3H-thymidine incorporation after an additional 12 hr. (FIG. 9B). The mRNA expression of IL-17 receptor family members in MSCs or Raw 264.7 (Macrophages) were examined by RT-PCR. NC: No RT. (FIG. 9C). Surface expression of IL-17RA was detected by immunofluoresence or flow cytometry in cloned MSCs. (FIGS. 9D and 9E). MSCs were first treated with IFNγ and TNFα with or without IL-17A (10 ng/ml), IFNγ and TNFα were supplemented at different cytokine concentrations, for 12 hr, and then cocultured with CD4^+ T cell blasts (FIG. 9D) or T cell hybridoma A1.1 cells (FIG. 9E) at a ratio of 1:20 for 12 hr. T cell proliferation was measured by 3H-Tdr incorporation. (FIG. 9F). MSCs were first treated with IFNγ and TNFα (2 ng/ml) with graded concentrations of IL-17A, for 12 hr, and then cocultured with T cell hybridoma A1.1 cells at a ratio of 1:10 for 12 hr. T cell proliferation was measured by 3H-thymidine incorporation. (FIG. 9G). MSCs were cocultured with fresh C57BL/6 splenocytes plus anti-CD3, anti-CD28, and antibodies against IL-17A, at a 1:20 or 1:40 ratio (MSCs:splenocytes), for 48 hr, and then cell proliferation was assessed by 3H-thymidine incorporation. Proliferation values represent means±SEM of three wells from a representative of three experiments.\nTo examine the possibility that cytokines induce the immunosuppressive capacity of MSCs, these culture conditions were reproduced by combining MSCs and fresh splenocytes at graded ratios in the presence of anti-CD3. […] The immunosuppressive capacity of MSC clones generated from different mouse strains was also examined.\nTo identify the mechanism through which immunosuppression by cytokine-exposed MSCs is effected, the response of anti-CD3-activated splenocytes co-cultured with MSCs (1:20, MSC:splenocytes) in a […] system was examined in various configurations.\nNitric oxide (NO) at high concentrations is known to inhibit T cell responses. It diffuses quickly from its source, but the concentration of the active form drops off within about 100 μm.\nProliferation assay—To assay T cell proliferation, 0.5 μCi of 3H-thymidine was added to each well of 96-well plates 6 hr before termination of the cultures by freezing. Plates were then thawed, cells were harvested, and incorporated 3H-Tdr was assessed with a Wallac Microbeta scintillation counter (Perkin-Elmer, Waltham, MA)."}, "[3]": {"system": "F1 (C57BL/6xC3H) mice", "assay": "Graft-versus-host disease (GvHD) model", "description": "Recipient mice (C57BL/6xC3H, F1) were lethally irradiated and injected i.v. with C57BL/6 bone marrow cells plus spleenocytes. On days 3 and 7 after bone marrow transplantation, recipients were administered with the indicated MSCs. For some wild-type MSC groups, L-NMMA, anti-IFNγ or a 3-antibody cocktail against TNFα, IL-1α, and IL-1β, (3 Abs) were injected i.p. Survival was monitored daily for 12 weeks.\nGvHD Induction and Modulation by MSCs. C57BL/6×C3H F1 mice at 8-weeks old were lethally irradiated (13 Gy) and after 24 hours were infused by tail vein injection with nucleated bone marrow cells (5×10^6) and splenocytes (5×10^6) isolated from C57BL/6 parent mice. On days 3 and 7 following bone marrow transplantation, the recipients were administrated with 0.5×10^6 MSCs derived from C57BL/6 wild-type, IFNγ R1^−/−, or iNOS^−/− mice via the tail vein. Some wild-type MSC groups were also injected i.p. with the iNOS inhibitor, NG-monomethyl L-arginine (L-NMMA, 500 μg/mouse), anti-IFNγ (400 μg/mouse), or a cocktail of three antibodies against TNFα, IL-1α and IL-1β (200 μg each/mouse) daily for 7 days starting immediately after the first MSC administration. As negative controls, the F1 mice were injected with F1 bone marrow cells. Mice were observed daily for GvHD signs (wasting, ruffled hair, and hunched back) and euthanized upon becoming moribund, thus marking survival time. […]"}, "[4]": {"system": "CD4+ T cell blasts", "assay": "T cell blast proliferation in co-culture with MSCs (3H-thymidine incorporation)", "assay_type": "cell-based, mouse", "details": "for induction of immunosuppression by MSCs with recombinant cytokines: 20 ng/ml each, MSC + T cell blasts or MSC + A1.1 cells, 1:20; for T cell proliferation after MSC treatment with low-concentration cytokines: 2 ng/ml each, 12 hr, then 1:20 MSC:T cells", "procedure": "FIG. 1. is a graph showing that immunosuppression by MSCs is induced by proinflammatory cytokines. Cloned MSCs were supplemented with the indicated combinations of recombinant cytokines (20 ng/ml each) for 8 hours, then co-cultured with CD4+ T cell blasts at a 1:20 ratio (MSC:T cells), and proliferation assessed after an additional 8 hours. Values represent means±SD of five wells from a representative of three experiments with different clones. * p<0.001.\nFIGS. 9A, 9B, 9C, 9D, 9E, 9F and 9G. (FIG. 9A). Cloned MSCs were first treated with the indicated combinations of recombinant cytokines IFNγ, TNFα, IL-17A (2 ng/ml each) for 12 hr, then cocultured with CD4^+ T cell blasts at a 1:20 ratio (MSC:T cells), and proliferation was assessed by 3H-thymidine incorporation after an additional 12 hr. (FIG. 9B). The mRNA expression of IL-17 receptor family members in MSCs or Raw 264.7 (Macrophages) were examined by RT-PCR. NC: No RT. (FIG. 9C). Surface expression of IL-17RA was detected by immunofluoresence or flow cytometry in cloned MSCs. (FIGS. 9D and 9E). MSCs were first treated with IFNγ and TNFα with or without IL-17A (10 ng/ml), IFNγ and TNFα were supplemented at different cytokine concentrations, for 12 hr, and then cocultured with CD4^+ T cell blasts (FIG. 9D) or T cell hybridoma A1.1 cells (FIG. 9E) at a ratio of 1:20 for 12 hr. T cell proliferation was measured by 3H-Tdr incorporation. (FIG. 9F). MSCs were first treated with IFNγ and TNFα (2 ng/ml) with graded concentrations of IL-17A, for 12 hr, and then cocultured with T cell hybridoma A1.1 cells at a ratio of 1:10 for 12 hr. T cell proliferation was measured by 3H-thymidine incorporation. (FIG. 9G). MSCs were cocultured with fresh C57BL/6 splenocytes plus anti-CD3, anti-CD28, and antibodies against IL-17A, at a 1:20 or 1:40 ratio (MSCs:splenocytes), for 48 hr, and then cell proliferation was assessed by 3H-thymidine incorporation. Proliferation values represent means±SEM of three wells from a representative of three experiments.\nT cell blasts were generated from CD4^+ T cells purified by negative selection with […] T cell subset isolation kits (R&D Systems). Cells (1×10^6 cells/ml) were activated by plastic-bound anti-CD3 and soluble anti-CD 28 for 48 hours, then cultured with IL-2 (200 U/ml) alone for 48 hours. All T cell cultures were maintained in RPMI-1640 medium supplemented with 10% heat-inactivated FBS, 2 mM glutamine, 100 U/ml penicillin, 100 μ·g/ml streptomycin, and […] (complete medium).\nSince most reported studies of immunosuppression by MSCs are based on their effects on T cell proliferation and cytokine production, the effect of MSCs was first examined on the IL-2-driven proliferation of T cell blasts. Fresh CD4^+ T cell blasts were generated from splenocytes by activation with anti-CD3 followed by expansion with IL-2 for several days (Devadas, et al. (2006) Immunity 25:237-247; Radvanyi, et al. (1996) Cell Immunol. 170:260-273). T cell blasts were added at a 1:20 ratio (MSC:T cells) along with IL-2 (200 U/ml). Cell proliferation was assessed by ^3H-Tdr incorporation after 8 hours. […] MSCs also had no effect on the proliferation of T hybridoma A1.1 cells. These T cells blasts and T hybridoma cells, however, produce no cytokines unless reactivated through the TCR (Fotedar, et al. (1985) J. Immunol. 135(5):3028-33). Thus, in the absence of T cell cytokines, MSCs were unable to suppress T cell proliferation.\nThe effect of IFNγ was then tested directly by adding isolated recombinant IFNγ (20 ng/ml) instead of activated splenocyte supernatant to the mixed co-cultures of MSC+ T cell blasts or MSC+A1.1 cells. […] Therefore, induction of the immunosuppressive function of MSCs by anti-CD3-activated splenocyte supernatant may be due to IFNγ acting in concert with either TNFα; IL-1α; or IL-1β on the MSCs. […]"}, "[5]": {"system": "iNOS", "assay": "iNOS mRNA in MSCs by real-time PCR", "assay_type": "cell-based, mouse", "details": "20 ng/ml each", "procedure": "Real-Time PCR. RNA was isolated from cell pellets using an RNEASY Mini Kit. First-strand cDNA synthesis was performed using SENSISCRIPT RT Kit with random hexamer primers (all kits from Qiagen, Valencia, Calif.). mRNA of the genes of interest were quantified by real-time PCR (MX-4000 from Stratagene, La Jolla, Calif.) using SYBR Green Master Mix (Applied Biosystems, Foster City, Calif.). Total amount of mRNA was normalized to endogenous β-actin mRNA. Primers sequences for iNOS were: forward, 5′-CAGCTGGGCTGTACAAACCTT-3′ (SEQ ID NO:1); reverse, 5′-CATTGGAAGTGAAGCGTTTCG-3′ (SEQ ID NO:2). Other primers were from the RT2 PROFILER™ PCR Array Mouse Chemokines & Receptors kit (Superarray, Frederick, Md.).\nAccordingly, it was contemplated that MSCs could upregulate their expression of iNOS and produce NO after exposure to these cytokines. […] […] At 12 hours post-stimulation, the level of iNOS mRNA was more than 7 times greater than β actin message, indicative of extremely high expression."}},
  "data": [
    {"molecule": "Cn1cc(CC(N)C(=O)O)c2ccccc21", "note": "(racemic) [1-MT, 1-methyl-DL-tryptophan]", "values": [
      {"measurement": "effect on inhibition of peripheral blood mononuclear cell proliferation by human MSCs", "setting": "[1]", "result": "reversed"},
      {"measurement": "effect on immunosuppression by MSCs", "setting": "[2]", "result": "no effect"}
    ]},
    {"molecule": "COC(=O)[C@@H](N)CCCNC(=N)N[N+](=O)[O-]", "note": "[L-NAME]", "values": [
      {"measurement": "splenocyte proliferation in MSC co-culture with iNOS inhibitor", "setting": "[2]", "result": "same effect"}
    ]},
    {"molecule": "CNC(=N)NCCC[C@H](N)C(=O)O", "note": "[L-NMMA, N G-monomethyl-L-arginine]", "values": [
      {"measurement": "effect on protection by MSC (histology)", "setting": "[3]; 14 days after bone marrow transplantation", "result": "almost completely reversed"},
      {"measurement": "effect on MSC-mediated protection from GvHD (survival)", "setting": "[3]; i.p. daily for 7 days after wild-type MSC infusion", "result": "significant reversal"},
      {"measurement": "splenocyte proliferation in MSC co-culture with iNOS inhibitor", "setting": "[2]", "result": "completely restored"},
      {"measurement": "effect on immunosuppression by mouse MSCs", "setting": "[2]; side-by-side comparison mouse and human MSCs", "result": "completely reversed"}
    ]},
    {"molecule": "COc1ccc2c(c1)c(CC(=O)O)c(C)n2C(=O)c1ccc(Cl)cc1", "note": "[indomethacin, Indomethacin]", "values": [
      {"measurement": "effect on immunosuppression by MSCs", "setting": "[2]", "result": "no effect"}
    ]},
    {"molecule": "GM-CSF: Granulocyte-macrophage colony-stimulating factor", "values": [
      {"measurement": "induction of immunosuppression by MSCs with recombinant cytokines", "setting": "[4]", "result": "no effect"}
    ]},
    {"molecule": "IFNβ: type I IFN, printed as IFNα or β (protein, UniProt P01575 22-182, looked up) Interferon beta: INYKQLQLQERTNIRKCQELLEQLNGKINLTYRADFKIPMEMTEKMQKSYTAFAIQEMLQNVFLVFRNNFSSTGWNETIVVRLLDELHQQTVFLKTVLEEKQEERLTWEMSSTALHLKSYYWRVQRYLKLMKYNSYAWMVVRAEIFRNFLIIRRLTRNFQN", "values": [
      {"measurement": "MSC-mediated immunosuppression in MSC+splenocyte+anti-CD3 system", "setting": "[2]", "result": "strikingly inhibited"}
    ]},
    {"molecule": "TNFα: recombinant mouse tumor necrosis factor-alpha (protein) LRSSSQNSSDKPVAHVVANHQVEEQLEWLSQRANALLANGMDLKDNQLVVPADGLYLVYSQVLFKGQGCPDYVLLTHTVSRFAISYQEKVNLLSAVKSPCPKDTPEGAELKPWYEPIYLGGVFQLEKGDQLSAEVNLPKYLDFAESGQVYFGVIAL", "values": [
      {"measurement": "T cell proliferation after MSC treatment with low-concentration cytokines", "setting": "[4]", "result": "cannot induce immunosuppression"},
      {"measurement": "iNOS mRNA upregulation in MSCs by recombinant cytokines", "setting": "[5]", "result": "ineffective"}
    ]},
    {"molecule": "IFNγ: recombinant mouse interferon-gamma (protein) HGTVIESLESLNNYFNSSGIDVEEKSLFLDIWRNWQKDGDMKILQSQIISFYLRLFEVLKDNQAISNNISVIESHLITTFFSNSKAKKDAFMSIAKFEVNNPQVQRQAFNELIRVVHQLLPESSLRKRKRSRC", "values": [
      {"measurement": "T cell proliferation after MSC treatment with low-concentration cytokines", "setting": "[4]", "result": "cannot induce immunosuppression"},
      {"measurement": "induction of immunosuppression by MSCs with recombinant cytokines", "setting": "[4]", "result": "did not induce immunosuppression"},
      {"measurement": "iNOS mRNA upregulation in MSCs by recombinant cytokines", "setting": "[5]", "result": "ineffective"}
    ]},
    {"molecule": "IL-6: Interleukin-6 (protein, UniProt P08505 25-211, looked up) Interleukin-6: FPTSQVRRGDFTEDTTPNRPVYTTSQVGGLITHVLWEIVEMRKELCNGNSDCMNNDDALAENNLKLPEIQRNDGCYQTGYNQEICLLKISSGLLEYHSYLEYMKNNLKDNKKDKARVLQRDTETLIHIFNQEVKDLHKIVLPTPISNALLTDKLESQKEWLRTKTIQFILKSLEEFLKVTLRSTRQT", "values": [
      {"measurement": "induction of immunosuppression by MSCs with recombinant cytokines", "setting": "[4]", "result": "no effect"}
    ]}
  ]
}
